Laboratory results reported in US7692030B2, “Conjugates of artemisinin-related endoperoxides and hydrazone derivatives for the treatment of cancer” (University of Washington, priority 2006, dated 2010).

What was measured:
HL-60(TB) = assay type: cell-based, human; details: Leukemia, 10 μM, 48 h
Description: The human tumor cell lines of the cancer screening panel were grown in RPMI 1640 medium containing 5% fetal bovine serum and 2 mM L-glutamine. For experimental screens, cells were inoculated into 96 well microtiter plates in 100 μL at plating densities ranging from 5,000 to 40,000 cells/well depending on the doubling time of individual cell lines. After cell inoculation, the microtiter plates were incubated at 37° C., 5% carbon dioxide, 95% air and 100% relative humidity for 24 hours prior to addition of the compounds.

[1] = tested on: approximately 60 human tumor cell lines; test: NCI DTP human tumor cell line screen, whole panel statistics; assay type: cell-based; details: for inhibitory activities against cancer cells: DTP human tumor cell line screen, non-small cell lung, colon, breast, ovarian, leukemia, renal, melanoma, prostate, CNS cancer; for mean growth percent: mean over all cell lines tested; for mean growth percent / delta value (growth percent) / range (growth percent): 10 μM, 48 h; for delta value (growth percent) / range (growth percent): over all cell lines tested
Description: (§1) Representative compounds of the invention, prepared as described in EXAMPLES 1-6, were submitted to the Developmental Therapeutics Program of the United States National Cancer Institute (NCl) to screen for anti-cancer activity. The anti-cancer activities of the six compounds were tested against approximately 60 human tumor cell lines representing leukemia, melanoma, and cancers of the lung, colon, breast, ovary, kidney, prostate, and brain. The following screening methodology was provided by the NCl. […] For experimental screens, cells were inoculated into 96 well microtiter plates in 100 μL at plating densities ranging from 5,000 to 40,000 cells/well depending on the doubling time of individual cell lines. After cell inoculation, the microtiter plates were incubated at 37° C., 5% carbon dioxide, 95% air and 100% relative humidity for 24 hours prior to addition of the compounds. After 24 hours of incubation, two plates of each cell line were fixed in situ with trichloroacetic acid (TCA) to represent a measurement of the cell population for each cell line at the time of compound addition (Tz). The compounds were solubilized in dimethyl sulfoxide at 400-fold the desired final maximum test concentration and stored frozen prior to use. At the time of drug addition, frozen aliquots of the compounds thawed and diluted with complete medium containing 50 μg/ml gentamicin. Aliquots of 100 μl of these different compound dilutions were added to the appropriate microtiter wells already containing 100 μl of medium, resulting in the required final compound concentration of 10 μM. Following compound addition, the plates were incubated for an additional 48 h at 37° C., 5% carbon dioxide, 95% air, and 100% relative humidity. For adherent cells, the assay was terminated by the addition of cold TCA. Cells were fixed in situ by the gentle addition of 50 μl of cold 50% (w/v) TCA (final concentration, 10% TCA) and incubated for 60 minutes at 4° C. The supernatant was discarded, and the plates were washed five times with tap water and air dried. Sulforhodamine B (SRB) solution (100 μl) at 0.4% (w/v) in 1% acetic acid was added to each well, and plates were incubated for 10 minutes at room temperature. After staining, unbound dye was removed by washing five times with 1% acetic acid and the plates were air dried. Bound stain was subsequently solubilized with 10 mM trizma base, and the absorbance was read on an automated plate reader at a wavelength of 515 nm. For suspension cells, the methodology was the same except that the assay was terminated by fixing settled cells at the bottom of the wells by gently adding 50 μl of 80% TCA (final concentration, 16% TCA). Using the three absorbance measurements [time zero, (Tz), control growth, (C), and test growth in the presence of compound (Ti)], the percentage growth was calculated at each of the compound concentrations levels. Percentage growth inhibition was calculated with the following algorithms: [(Ti−Tz)/(C−Tz)]×100 for concentrations for which Ti>/=Tz [(Ti−Tz)/Tz]×100 for concentrations for which Ti<Tz The results of the NCl in vitro anticancer screening with six compounds against various human tumor cell lines are presented below in Tables 2-7. […] The growth percent mean, delta, and range for each compound are given below.

SK-OV-3 = test: NCI DTP human tumor cell line screen (SRB); assay type: cell-based; details: Ovarian Cancer, 10 μM, 48 h
Description: as §1

SR = test: NCI DTP human tumor cell line screen (SRB); assay type: cell-based; details: Leukemia, 10 μM, 48 h
Description: as §1

NCI-H226 = test: NCI DTP human tumor cell line screen (SRB); assay type: cell-based; details: Non-Small Cell Lung Cancer, 10 μM, 48 h
Description: as §1

COLO 205 = test: NCI DTP human tumor cell line screen (SRB); assay type: cell-based; details: Colon Cancer, 10 μM, 48 h
Description: as §1

MOLT-4 = test: NCI DTP human tumor cell line screen (SRB); assay type: cell-based; details: Leukemia, 10 μM, 48 h
Description: as §1

UACC-62 = test: NCI DTP human tumor cell line screen (SRB); assay type: cell-based; details: Melanoma, 10 μM, 48 h
Description: as §1

NCI-H23 = test: NCI DTP human tumor cell line screen (SRB); assay type: cell-based; details: Non-Small Cell Lung Cancer, 10 μM, 48 h
Description: as §1

T-47D = test: NCI DTP human tumor cell line screen (SRB); assay type: cell-based; details: Breast Cancer, 10 μM, 48 h
Description: as §1

SK-MEL-2 = test: NCI DTP human tumor cell line screen (SRB); assay type: cell-based; details: Melanoma, 10 μM, 48 h
Description: as §1

MDA-MB-231/ATCC = test: NCI DTP human tumor cell line screen (SRB); assay type: cell-based; details: Breast Cancer, 10 μM, 48 h
Description: as §1

HCT-116 = test: NCI DTP human tumor cell line screen (SRB); assay type: cell-based; details: Colon Cancer, 10 μM, 48 h
Description: as §1

CCRF-CEM = test: NCI DTP human tumor cell line screen (SRB); assay type: cell-based; details: Leukemia, 10 μM, 48 h
Description: as §1

MCF7 = test: NCI DTP human tumor cell line screen (SRB); assay type: cell-based; details: Breast Cancer, 10 μM, 48 h
Description: as §1

U251 = test: NCI DTP human tumor cell line screen (SRB); assay type: cell-based; details: CNS Cancer, 10 μM, 48 h
Description: as §1

HS 578T = test: NCI DTP human tumor cell line screen (SRB); assay type: cell-based; details: Breast Cancer, 10 μM, 48 h
Description: as §1

SF-295 = test: NCI DTP human tumor cell line screen (SRB); assay type: cell-based; details: CNS Cancer, 10 μM, 48 h
Description: as §1

NCI-H460 = test: NCI DTP human tumor cell line screen (SRB); assay type: cell-based; details: Non-Small Cell Lung Cancer, 10 μM, 48 h
Description: as §1

786-0 = test: NCI DTP human tumor cell line screen (SRB); assay type: cell-based; details: Renal Cancer, 10 μM, 48 h
Description: as §1

A498 = test: NCI DTP human tumor cell line screen (SRB); assay type: cell-based; details: Renal Cancer, 10 μM, 48 h
Description: as §1

LOX IMVI = test: NCI DTP human tumor cell line screen (SRB); assay type: cell-based; details: Melanoma, 10 μM, 48 h
Description: as §1

K-562 = test: NCI DTP human tumor cell line screen (SRB); assay type: cell-based; details: Leukemia, 10 μM, 48 h
Description: as §1

UO-31 = test: NCI DTP human tumor cell line screen (SRB); assay type: cell-based; details: Renal Cancer, 10 μM, 48 h
Description: as §1

BT-549 = test: NCI DTP human tumor cell line screen (SRB); assay type: cell-based; details: Breast Cancer, 10 μM, 48 h
Description: as §1

CAKI-1 = test: NCI DTP human tumor cell line screen (SRB); assay type: cell-based; details: Renal Cancer, 10 μM, 48 h
Description: as §1

OVCAR-3 = test: NCI DTP human tumor cell line screen (SRB); assay type: cell-based; details: Ovarian Cancer, 10 μM, 48 h
Description: as §1

OVCAR-5 = test: NCI DTP human tumor cell line screen (SRB); assay type: cell-based; details: Ovarian Cancer, 10 μM, 48 h
Description: as §1

SF-539 = test: NCI DTP human tumor cell line screen (SRB); assay type: cell-based; details: CNS Cancer, 10 μM, 48 h
Description: as §1

ACHN = test: NCI DTP human tumor cell line screen (SRB); assay type: cell-based; details: Renal Cancer, 10 μM, 48 h
Description: as §1

HOP-62 = test: NCI DTP human tumor cell line screen (SRB); assay type: cell-based; details: Non-Small Cell Lung Cancer, 10 μM, 48 h
Description: as §1

## CC1CCC2C(C)C(OCc3ccc(C(=O)NN=Cc4ccccc4O)nc3)OC3OC4(C)CCC1C32OO4 (stereo not drawn) [ART-Pyr-Sal, N′-(2-hydroxybenzylidene)-5-(dihydroxyartemisinin-methyl)-2-pyridine carbohydrazide]
HL-60(TB)
  Growth Percent: 5.22%
[1]
  inhibitory activities against cancer cells: inhibitory activities against several types of cancer cells
  mean growth percent: 12.83%
  delta value (growth percent): 42.97
  range (growth percent): 85.3
SK-OV-3
  Growth Percent: 11.40%
SR
  Growth Percent: −30.14%
NCI-H226
  Growth Percent: 1.83%
COLO 205
  Growth Percent: 30.63%
MOLT-4
  Growth Percent: 10.13%
UACC-62
  Growth Percent: 7.61%
NCI-H23
  Growth Percent: 16.47%
T-47D
  Growth Percent: 12.21%
SK-MEL-2
  Growth Percent: −23.42%
MDA-MB-231/ATCC
  Growth Percent: 50.08%
HCT-116
  Growth Percent: 18.34%
CCRF-CEM
  Growth Percent: −17.26%
MCF7
  Growth Percent: 13.61%
U251
  Growth Percent: 14.70%
HS 578T
  Growth Percent: 19.38%
SF-295
  Growth Percent: 4.52%
NCI-H460
  Growth Percent: 0.12%
786-0
  Growth Percent: −17.58%
A498
  Growth Percent: 5.27%
LOX IMVI
  Growth Percent: 2.20%
K-562
  Growth Percent: 26.88%
UO-31
  Growth Percent: 0.04%
BT-549
  Growth Percent: 15.65%
CAKI-1
  Growth Percent: 18.48%
OVCAR-3
  Growth Percent: 35.18%
OVCAR-5
  Growth Percent: 55.16%
SF-539
  Growth Percent: −29.69%
ACHN
  Growth Percent: 10.64%
HOP-62
  Growth Percent: 20.73%

## CC1CCC2C(C)C(OCCn3cc(C(=O)NN=Cc4ccccc4O)nn3)OC3OC4(C)CCC1C32OO4 (stereo not drawn) [ART-Triazole-Sal, N′-(2-hydroxybenzylidene)-1-(dihydroxyartemisinin-ethyl)-1H-1,2,3-triazole-4-carbohydrazide]
HL-60(TB)
  Growth Percent: −31.16%
[1]
  inhibitory activities against cancer cells: inhibitory activities against several types of cancer cells
  mean growth percent: 22.31%
  delta value (growth percent): 53.47
  range (growth percent): 83.7
[1]; summary text
  mean growth percent: 22.31%
SK-OV-3
  Growth Percent: 32.87%
SR
  Growth Percent: 0.08%
NCI-H226
  Growth Percent: 26.98%
COLO 205
  Growth Percent: 26.05%
MOLT-4
  Growth Percent: −0.29%
UACC-62
  Growth Percent: 10.70%
NCI-H23
  Growth Percent: 30.70%
T-47D
  Growth Percent: 37.45%
SK-MEL-2
  Growth Percent: −15.86%
MDA-MB-231/ATCC
  Growth Percent: 52.54%
HCT-116
  Growth Percent: 20.87%
CCRF-CEM
  Growth Percent: −14.86%
MCF7
  Growth Percent: 13.62%
U251
  Growth Percent: 24.89%
HS 578T
  Growth Percent: 48.29%
SF-295
  Growth Percent: 24.32%
NCI-H460
  Growth Percent: 2.83%
786-0
  Growth Percent: 1.80%
A498
  Growth Percent: 50.94%
LOX IMVI
  Growth Percent: 6.87%
K-562
  Growth Percent: 17.31%
UO-31
  Growth Percent: −28.61%
BT-549
  Growth Percent: 40.56%
CAKI-1
  Growth Percent: 40.15%
OVCAR-3
  Growth Percent: 50.36%
OVCAR-5
  Growth Percent: 41.28%
SF-539
  Growth Percent: 14.19%
ACHN
  Growth Percent: 15.69%
HOP-62
  Growth Percent: 24.18%
